Experiments:
interleukin-6 (IL-6) = assay: IL-6 level assay (ELISA); assay type: cell-based, human; conditions: 72 h; for reduction of IL-6 secretion, times: PC3, IC50 dose
Experimental: IL-6 concentration at all studied cancer cells and normal HaCaT cell lines was measured by ELISA kit (Diaclon SAS Besancon Cedex, France). […] IL-6 in cell culture supernatant was measured using enzyme-linked immunosorbent assay in accordance with the manufacturer’s protocol.

[1] = tested on: Peroxiredoxin-6 (PRDX6_HUMAN); assay: LC–MS proteome analysis, PRDX6; assay type: cell-based, Homo sapiens; conditions: IC50 concentration, % of control
Experimental: (§1) Enzymes involved in oxidoreductive potential were analyzed in the cell lysates obtained after treatment cells with selected conjugates for 24 h. Cells were washed with phosphate-buffered saline (PBS) and harvested, then centrifuged at 1000× g for 10 min. Then, lysis buffer (containing protease inhibitor, 1% RIPA Lysis and Extraction Buffer (ThermoFisher)) and cold PBS were added, and samples were sonicated three times in ice bath. Next, the cell lysates were centrifuged at 14,000× g at 4 °C for 15 min, and then supernatants were stored at […] before use. Protein concentration was measured by the Bradford method.
(§2) Normalized protein concentrations (5 µg) from cell lysate were precipitated by ice cold (–20 °C) acetonitrile (ACN, Merck, in ratio 1:4). Then, samples were centrifuged (–9 °C, 30 min., 18,000× g), the supernatant was discarded and ACN excess was evaporated using a vacuum centrifuge (5 min., room temp.). Protein pellet was dissolved in 40 mM ammonium bicarbonate. An amount of 500 mM dithiothreitol (DTT, with final concentration 20 mM) and 1 M iodoacetamide (IAA, with final concentration 40 mM) were used for reduction and alkylation processes. After 16 h of incubation in 37 °C with Trypsin Gold (Promega), digested protein samples were diluted with 0.1% formic acid (ThermoFisher) and centrifuged (+2 °C, 30 min, 18,000× g).
(§3) LC–MS analysis was carried out with the use of nanoUHPLC (nanoElute, Bruker) coupled by CaptiveSpray (Bruker) to ESI-Q-TOF mass spectrometer (Compact, Bruker). Two-column separation method was used, i.e., pre-column (300 µm × 5 mm, C18 PepMap 100, 5 µm, 100Å, Thermo Scientific) and Aurora separation column with CSI fitting (75 µm × 250 mm, C18 1.6 µm) in gradient 2% B to 35% B in 90 min with the 300 nL/min flow rate. Mobile phases (A) 0.1% formic acid in water and (B) 0.1% formic acid in ACN were used.
(§4) Sample ionizations were performed at a gas flow of 3.0 L/min, temperature of 150 °C and voltage of the capillary at 1600 V. The quadrupole energy was fixed to 5.0 eV and collision chamber energy 7.0 eV, with an ion transfer time of 90 µs. The ions were analyzed in the positive polarity mode in the range 150–2200 m/z, with the acquisition frequency of the 1 Hz spectrum, as well as with the autoMS/MS system.
(§5) The collected spectra were analyzed and calibrated using DataAnalysis software (Bruker) and then identified in ProteinScape (Bruker) by the MASCOT server. Protein identification was conducted using the online SwissProt and NCBIprot databases, and their references and biological significance were identified using Reactome.org, String.org and KEGG.

[2] = tested on: Superoxide dismutase [Cu-Zn] (SODC_HUMAN); assay: LC–MS proteome analysis, SODC; assay type: cell-based, Homo sapiens; conditions: for Protein Intensity, % (SODC): IC50 concentration, % of control
Experimental: as §1, §2, §3, §4, §5

[3] = tested on: Thioredoxin-dependent peroxide reductase, mitochondrial (PRDX3_HUMAN); assay: LC–MS proteome analysis, PRDX3; assay type: cell-based, Homo sapiens; conditions: IC50 concentration, % of control
Experimental: as §1, §2, §3, §4, §5

SW480 cells = assay: Annexin V-FITC/PI flow cytometry, SW480; assay type: cell-based, human; conditions: for apoptosis of SW480 cells: at 4 μM (supplement text)
Experimental: (§6) The cells were cultured and harvested under the conditions described in the cell culture section. […] The effect of these compounds on the process of early and late apoptosis and necrosis was determined, as described previously, by dual staining with annexin V-FITC and propidium iodide according to manufacturer’s protocol (Becton Dickinson). The cells that were annexin V-FITC positive and PI-negative were identified as early apoptotic and annexin V-FITC and PI-positive as late apoptotic or necrotic.

[4] = tested on: Glutathione reductase, mitochondrial (GSHR_HUMAN); assay: LC–MS proteome analysis, GSHR; assay type: cell-based, Homo sapiens; conditions: IC50 concentration, % of control
Experimental: as §1, §2, §3, §4, §5

[5] = tested on: Peroxiredoxin-4 (PRDX4_HUMAN); assay: LC–MS proteome analysis, PRDX4; assay type: cell-based, Homo sapiens; conditions: for Protein Intensity, % (PRDX4): IC50 concentration, % of control
Experimental: as §1, §2, §3, §4, §5

PC3 cells = assay: Annexin V-FITC/PI flow cytometry, PC3; assay type: cell-based, human; conditions: PC3, IC50 dose, 72 h
Experimental: as §6

[6] = tested on: clinical methicillin-resistant strains of S. aureus (MRSA) and S. epidermidis (MRSE); assay: MIC, clinical strains; assay type: cell-based, Staphylococcus
Experimental: (§7) The antimicrobial activity of the compounds was tested on Gram-positive bacteria (Staphylococcus aureus NCTC 4163, Staphylococcus aureus ATCC 25923, Staphylococcus aureus ATCC 6538, Staphylococcus aureus ATCC 29213, Staphylococcus epidermidis ATCC 12228, Staphylococcus epidermidis ATCC 35984), Gram-negative rods (Escherichia coli ATCC 10538, Escherichia coli ATCC 25922, Pseudomonas aeruginosa ATCC 15442, Pseudomonas aeruginosa ATCC 27863) and yeasts (Candida albicans ATCC 10231, Candida albicans ATCC 90028, Candida parapsilosis ATCC 22019). Hospital methicillin-resistant strains of Staphylococcus aureus and Staphylococcus epidermidis were obtained from the collection of the Department of Pharmaceutical Microbiology, Medical University of Warsaw, Poland.
(§8) Antifungal activities were assessed using Mueller–Hinton agar + 2% glucose and 0.5 µg/mL methylene blue dye medium. Sterile filter paper discs (9 mm diameter, Whatman Number 3 chromatography paper) were dripped with tested compound solutions (in dimethylsulfoxide, DMSO) to load 400 μg of a given compound per disc. Dry discs were placed on the surface of appropriate agar medium. The results (diameter of the growth inhibition zone) were read after 18 h of incubation at 35 °C. Minimal inhibitory concentration (MIC) was tested by the twofold serial microdilution method (in 96-well microtiter plates) using Mueller–Hinton broth medium (Beckton Dickinson) for bacteria or RPMI-1640 medium for Candida species, according to CLSI guidelines. The stock solution of tested agent was prepared in DMSO and diluted in sterile water. […] The final inoculum of all studied microorganisms was 10^5 CFU/ mL^−1 (colony forming units per ml). Minimal inhibitory concentrations (the lowest concentration of a tested agent that prevents visible growth of a microorganism) were read after 18 h (bacteria) or 24 h (yeasts) of incubation at 35 °C.

[7] = tested on: hospital S. aureus (MRSA); assay: MIC, hospital S. aureus; assay type: cell-based, Staphylococcus aureus; conditions: clinical S. aureus rods (six for 1–4, 7, 8)
Experimental: as §7, §8

SMILES	Protein Intensity, % (PRDX6) ([1]; PC3, 24 h) [%]	Protein Intensity, % (PRDX6) ([1]; SW480, 24 h) [%]	Protein Intensity, % (PRDX6) ([1]; SW620, 24 h) [%]	Protein Intensity, % (SODC) ([2]; PC3, 24 h) [%]	Protein Intensity, % (SODC) ([2]; SW480, 24 h) [%]	Protein Intensity, % (SODC) ([2]; SW620, 24 h) [%]	Protein Intensity, % (PRDX3) ([3]; PC3, 24 h) [%]	Protein Intensity, % (PRDX3) ([3]; SW480, 24 h) [%]	Protein Intensity, % (PRDX3) ([3]; SW620, 24 h) [%]	early apoptosis, % of cells (SW480 cells; SW480, IC50 dose, 72 h)	Protein Intensity, % (GSHR) ([4]; PC3, 24 h) [%]	Protein Intensity, % (GSHR) ([4]; SW480, 24 h) [%]	Protein Intensity, % (GSHR) ([4]; SW620, 24 h) [%]	Protein Intensity, % (PRDX4) ([5]; PC3, 24 h) [%]	Protein Intensity, % (PRDX4) ([5]; SW480, 24 h) [%]	Protein Intensity, % (PRDX4) ([5]; SW620, 24 h) [%]	early apoptosis, % of cells (PC3 cells)	MIC [6] [µg/mL]	also measured
O=[N+]([O-])c1cc([N+]2=C(Nc3ccccc3Br)[S][Cu-2]23[S]C(Nc2ccccc2Br)=[N+]3c2ccc(Cl)c([N+](=O)[O-])c2)ccc1Cl [Compound 1, Copper (II) complex with 1-(2-bromophenyl)-3-(4-chloro-3-nitrophenyl)thiourea]	66.6	75.1	83.2	58.5	68.2	72.7	69.5	95.2	69.9	45.18% ± 3.9%	71.1	58.1	69.1	72.6	67.6	79.4	one third	4 to 8	reduction of IL-6 secretion, times (interleukin-6 (IL-6)): 1.5 times; reduction of IL-6 level, times (interleukin-6 (IL-6); SW480, IC50 dose, vs control): 1.9 times; reduction of IL-6 concentration, times (interleukin-6 (IL-6); SW620, IC50 dose): 2.4 times; apoptosis of SW480 cells (SW480 cells): 47%
O=[N+]([O-])c1cc([N+]2=C(Nc3cccc(Br)c3)[S][Cu-2]23[S]C(Nc2cccc(Br)c2)=[N+]3c2ccc(Cl)c([N+](=O)[O-])c2)ccc1Cl [Compound 2, Copper (II) complex with 1-(3-bromophenyl)-3-(4-chloro-3-nitrophenyl)thiourea]	–	–	–	–	–	–	–	–	–	–	–	–	–	–	–	–	–	4 to 8	–
O=[N+]([O-])c1cc([N+]2=C(Nc3ccc(F)c(Cl)c3)[S][Cu-2]23[S]C(Nc2ccc(F)c(Cl)c2)=[N+]3c2ccc(Cl)c([N+](=O)[O-])c2)ccc1Cl [Compound 4, Copper (II) complex with 1-(3-chloro-4-fluorophenyl)-3-(4-chloro-3-nitrophenyl)thiourea]	–	–	–	–	–	–	–	–	–	–	–	–	–	–	–	–	–	4 to 8	–
O=[N+]([O-])c1cc([N+]2=C(Nc3ccc(Cl)c(Cl)c3)[S][Cu-2]23[S]C(Nc2ccc(Cl)c(Cl)c2)=[N+]3c2ccc(Cl)c([N+](=O)[O-])c2)ccc1Cl [Compound 5, Copper (II) complex with 1-(4-chloro-3-nitrophenyl)-3-(3,4-dichlorophenyl)thiourea]	–	–	–	–	–	–	–	–	–	–	–	–	–	–	–	–	–	–	times stronger / more potent than ciprofloxacin [7]: 4–16 times
O=[N+]([O-])c1cc(NC2=[N+](c3ccc(Cl)c([N+](=O)[O-])c3)[Cu-2]3([S]2)[S]C(Nc2ccc(Cl)c([N+](=O)[O-])c2)=[N+]3c2ccc(Cl)c([N+](=O)[O-])c2)ccc1Cl [Compound 6, Copper (II) complex with 1,3-bis(4-chloro-3-nitrophenyl)thiourea]	–	–	–	–	–	–	–	–	–	–	–	–	–	–	–	–	–	–	times stronger / more potent than ciprofloxacin [7]: 4–16 times
O=[N+]([O-])c1cc([N+]2=C(Nc3ccccc3F)[S][Cu-2]23[S]C(Nc2ccccc2F)=[N+]3c2ccc(Cl)c([N+](=O)[O-])c2)ccc1Cl [Compound 7, Copper (II) complex with 1-(2-fluorophenyl)-3-(4-chloro-3-nitrophenyl)thiourea]	35.0	68.3	67.5	15.4	40.6	44.7	12.4	90.4	61.2	≤ 40%	61.2	91.7	67.3	35.7	58.3	73.0	one third	4 to 8	decrease of IL-6 level (interleukin-6 (IL-6); SW480, IC50 dose, vs control): ≤ 30%; reduction of SODC intensity ([2]; SW480, IC50 concentration): 59.4%; reduction of PRDX4 intensity ([5]; SW480, IC50 concentration): 41.7%
O=[N+]([O-])c1cc([N+]2=C(Nc3ccc(I)cc3)[S][Cu-2]23[S]C(Nc2ccc(I)cc2)=[N+]3c2ccc(Cl)c([N+](=O)[O-])c2)ccc1Cl [Compound 8, Copper (II) complex with 1-(4-iodophenyl)-3-(4-chloro-3-nitrophenyl)thiourea]	53.7	71.1	77.6	33.0	88.2	64.5	24.8	96.3	95.2	48.9% ± 3.4%	68.5	74.3	79.3	30.8	78.2	93.9	45.7% ± 3.3%	4 to 8	reduction of IL-6 secretion, times (interleukin-6 (IL-6)): almost twofold; reduction of IL-6 level, times (interleukin-6 (IL-6); SW480, IC50 dose, vs control): twofold; late apoptosis, % of cells (SW480 cells; SW480, IC50 dose, 72 h): 20.7% ± 2.8%; apoptosis of SW480 cells (SW480 cells): 47%
